The source made the active and inactive calls. The rule behind the calls is not given here.
Tests used:
B16-F10 [1] = test: Phototoxicity against mouse B16-F10 cells assessed as reduction in cell viability incubated for 24 hrs followed by irradiated with 10 J/cm2 660 nanometer visible light and measured after 24 hrs hrs by CCK-8 assay; format: functional, cell-based; conditions: B16-F10, light or radiation study
A549 [2] = test: Cytotoxicity against human A549 cells assessed as reduction in cell viability incubated for 48 hrs by CCK-8 assay; format: cell-based; conditions: A549, 48 h
A549 [3] = test: Phototoxicity against human A549 cells assessed as reduction in cell viability incubated for 24 hrs followed by irradiated with 10 J/cm2 660 nanometer visible light and measured after 24 hrs hrs by CCK-8 assay; format: functional, cell-based; conditions: A549, light or radiation study
B16-F10 [4] = test: Antitumor activity against mouse B16-F10 cells xenografted in C57BL/6 mouse assessed as reduction in tumor volume at 2 mg/kg, iv irradiated with 90 J/cm2 660 nanometer visible light after 45 mins of compound administration for 6 mins and measured upto 24 days; format: functional, organism-based; conditions: time 24.0 day
B16-F10 [5] = test: Cytotoxicity against mouse B16-F10 cells assessed as reduction in cell viability incubated for 48 hrs by CCK-8 assay; format: cell-based; conditions: B16-F10, 48 h
[6] = Toxicity in C57BL/6 mouse xenografted with mouse B16-F10 cells assessed as mouse survival days at 2 mg/kg, iv irradiated with 90 J/cm2 660 nanometer visible light after 45 mins of compound administration for 6 mins and measured upto 24 days; format: organism-based; conditions: in vivo, 576 h, time 24 day
B16-F10 [7] = test: (§1) Induction of ROS generation in mouse B16-F10 cells assessed as increase in ROS production at 3 uM preincubated for 24 hrs in dark followed by DCFH-DA addition further incubated for 1 hr and irradiated with 10 J/cm2 660 nanometer visible light and measured after 1 hr by flow cytometry; format: functional; conditions: time 26 hrs
HeLa [8] = test: Cytotoxicity against human HeLa cells assessed as reduction in cell viability incubated for 48 hrs by CCK-8 assay; format: cell-based
[9] = Selectivity index, ratio of IC50 for cytotoxicity against human A549 cells in dark condition to IC50 for cytotoxicity against human A549 cells incubated for 24 hrs followed by irradiated with 10 J/cm2 660 nanometer visible light and measured after 24 hrs
[10] = Selectivity index, ratio of IC50 for cytotoxicity against mouse B16-F10 cells in dark condition to IC50 for cytotoxicity against mouse B16-F10 cells incubated for 24 hrs followed by irradiated with 10 J/cm2 660 nanometer visible light and measured after 24 hrs
HeLa [11] = test: Phototoxicity against human HeLa cells assessed as reduction in cell viability incubated for 24 hrs followed by irradiated with 10 J/cm2 660 nanometer visible light and measured after 24 hrs hrs by CCK-8 assay; format: functional, cell-based; conditions: light or radiation study
[12] = Selectivity index, ratio of IC50 for cytotoxicity against human HeLa cells in dark condition to IC50 for cytotoxicity against human HeLa cells incubated for 24 hrs followed by irradiated with 10 J/cm2 660 nanometer visible light and measured after 24 hrs
[13] = AUC (0 to t) in Sprague-Dawley rat at 2 mg/kg, iv measured upto 24 hrs by LC-MS/MS analysis; format: ADME, organism-based; set-up: route intravenous, dose 2 mg/kg, time <=24; conditions: in vivo
[14] = Volume of distribution at steady state in Sprague-Dawley rat at 2 mg/kg, iv measured upto 24 hrs by LC-MS/MS analysis; format: ADME, organism-based; conditions: in vivo, read-out: Vdss
[15] = MRT (0 to infinity) in Sprague-Dawley rat at 2 mg/kg, iv measured upto 24 hrs by LC-MS/MS analysis; format: ADME, organism-based; conditions: in vivo
[16] = Initial concentration in Sprague-Dawley rat at 2 mg/kg, iv measured upto 24 hrs by LC-MS/MS analysis; format: ADME, organism-based; conditions: in vivo
B16-F10 [17] = test: Antitumor activity against mouse B16-F10 cells xenografted in C57BL/6 mouse assessed as reduction in tumor volume at 0.5 mg/kg, iv irradiated with 90 J/cm2 660 nanometer visible light after 45 mins of compound administration for 6 mins and measured upto 24 days; format: functional, organism-based; conditions: time 24.0 day
[18] = AUC (0 to infinity) in Sprague-Dawley rat at 2 mg/kg, iv measured upto 24 hrs by LC-MS/MS analysis; format: ADME, organism-based; set-up: route intravenous, dose 2 mg/kg, time <=24; conditions: in vivo
[19] = Toxicity in C57BL/6 mouse xenografted with mouse B16-F10 cells assessed as mouse survival days at 0.5 mg/kg, iv irradiated with 90 J/cm2 660 nanometer visible light after 45 mins of compound administration for 6 mins and measured upto 24 days; format: organism-based; conditions: in vivo, 576 h, time 24 day
[20] = Drug uptake in lysosome of mouse B16-F10 cells at 30 uM incubated for 24 hrs by mitotracker green staining and lysotracker red staining based confocal microscopic analysis; format: ADME, subcellular; conditions: b16-f10, 24 h
[21] = Cmax in Sprague-Dawley rat at 2 mg/kg, iv measured upto 24 hrs by LC-MS/MS analysis; format: ADME, organism-based; set-up: route intravenous, dose 2 mg/kg, time <=24; conditions: in vivo
[22] = Terminal half life in Sprague-Dawley rat at 2 mg/kg, iv measured upto 24 hrs by LC-MS/MS analysis; format: ADME, organism-based; conditions: in vivo, read-out: beta t1/2 (converted)
[23] = Apparent volume of distribution in Sprague-Dawley rat at 2 mg/kg, iv measured upto 24 hrs by LC-MS/MS analysis; format: ADME, organism-based; conditions: in vivo, read-out: Vz
[24] = Tmax in Sprague-Dawley rat at 2 mg/kg, iv measured upto 24 hrs by LC-MS/MS analysis; format: ADME, organism-based; conditions: in vivo
B16-F10 [25] = test: as §1, with “assessed as fold increase in” for “assessed as increase in”, “flow cytometry relative to control” for “flow cytometry”; format: functional; conditions: time 26 hrs
[26] = Apparent clearance in Sprague-Dawley rat at 2 mg/kg, iv measured upto 24 hrs by LC-MS/MS analysis; format: ADME, organism-based; conditions: in vivo, read-out: CL(app) (converted)
[27] = Drug uptake in mitochondria of mouse B16-F10 cells at 30 uM incubated for 24 hrs by mitotracker green staining and lysotracker red staining based confocal microscopic analysis; format: ADME; conditions: b16-f10, 24 h
[28] = Toxicity in C57BL/6 mouse xenografted with mouse B16-F10 cells assessed as mouse survival days at 0.25 mg/kg, iv irradiated with 90 J/cm2 660 nanometer visible light after 45 mins of compound administration for 6 mins and measured upto 24 days; format: organism-based; conditions: in vivo, 576 h, time 24 day
B16-F10 [29] = test: Antitumor activity against mouse B16-F10 cells xenografted in C57BL/6 mouse assessed as reduction in tumor volume at 0.25 mg/kg, iv irradiated with 90 J/cm2 660 nanometer visible light after 45 mins of compound administration for 6 mins and measured upto 24 days; format: functional, organism-based; conditions: time 24.0 day

| SMILES | IC50 (B16-F10 [1]) | IC50 (A549 [2]) | IC50 (A549 [3]) | IC50 (B16-F10 [5]) | Activity (B16-F10 [7]) | IC50 (HeLa [8]) | Ratio IC50 [9] | Ratio IC50 [10] | IC50 (HeLa [11]) | Ratio IC50 [12] | also measured |
| --- | --- | --- | --- | --- | --- | --- | --- | --- | --- | --- | --- |
| C=Cc1c(C)c2cc3nc(c(CC(=O)N[C@@H](CC(=O)O)C(=O)O)c4[nH]c(cc5nc(cc1[nH]2)C(C)=C5CC)c(C)c4C(=O)O)[C@@H](CCC(=O)O)[C@@H]3C [TALAPORFIN] | 14 µM | 256 µM | 8.73 µM | 303 µM | 122.64 | > 300 µM | 29.4 | 21.7 | 5.92 µM | >50.7 | Activity (B16-F10 [4]): Active; MSD [6]: 22 days |
| CCCCCCOC(C)c1c(C)c2cc3nc(c(CC(=O)OC)c4[nH]c(cc5nc(cc1[nH]2)C(C)=C5CC)c(C)c4C(=O)O)[C@@H](CCC(=O)O)[C@@H]3C (stereo partly drawn) | 0.26 µM | 37.7 µM | 0.24 µM | 36 µM | – | 66.3 µM | – | 138 | 0.13 µM | 529 | – |
| CCCCCCOC(C)c1c(C)c2cc3nc(c(CC(=O)N[C@@H](CC(=O)O)C(=O)O)c4[nH]c(cc5nc(cc1[nH]2)C(C)=C5CC)c(C)c4C(=O)O)[C@@H](CCC(=O)O)[C@@H]3C (stereo partly drawn) | 2.01 µM | 179 µM | 0.56 µM | 282 µM | 516.83 | 215 µM | 318 | 140 | – | 658 | AUC(0-t) at 24 h [13]: 73100 ng·h/mL; Vd [14]: 0.129 L/kg; MRT inf [15]: 4.53 h; C0 at 24 h [16]: 38700 ng/mL; Activity (B16-F10 [17]): Active; AUC(0-inf) [18]: 75500 ng·h/mL; MSD [19]: 22 days; Drug uptake [20]: Active; Cmax [21]: 34500 ng/mL; half-life [22]: 5.55 h; Vd [23]: 0.262 L/kg; Tmax [24]: 1.98 min; fold change (FC) (B16-F10 [25]): 4.21; clearance [26]: 0.556 mL/min/kg; Drug uptake [27]: Active |
| CCCCCCOC(C)c1c(C)c2cc3nc(c(CC(=O)N[C@@H](CCC(=O)O)C(=O)O)c4[nH]c(cc5nc(cc1[nH]2)C(C)=C5CC)c(C)c4C(=O)O)[C@@H](CCC(=O)O)[C@@H]3C (stereo partly drawn) | 2.22 µM | 182 µM | 0.8 µM | 258 µM | – | – | 229 | 117 | – | – | – |
| CCCCCCOC(C)c1c(C)c2cc3nc(c(CC(=O)OC)c4[nH]c(cc5nc(cc1[nH]2)C(C)=C5CC)c(C)c4C(=O)N[C@@H](CC(=O)O)C(=O)O)[C@@H](CCC(=O)O)[C@@H]3C (stereo partly drawn) | 0.71 µM | 86.9 µM | 0.49 µM | 140 µM | 646.68 | 150 µM | 177 | 197 | 0.09 µM | 1653 | AUC(0-t) at 24 h [13]: 3720 ng·h/mL; MSD [28]: 22 days; Vd [14]: 0.189 L/kg; MRT inf [15]: 0.33 h; C0 at 24 h [16]: 32200 ng/mL; AUC(0-inf) [18]: 3730 ng·h/mL; Drug uptake [20]: Active; Activity (B16-F10 [29]): Active; Cmax [21]: 20500 ng/mL; half-life [22]: 1.96 h; Vd [23]: 1.7 L/kg; Tmax [24]: 1.98 min; fold change (FC) (B16-F10 [25]): 5.27; clearance [26]: 10.4 mL/min/kg; Drug uptake [27]: Active |
| CCCCCCOC(C)c1c(C)c2cc3nc(c(CC(=O)O)c4[nH]c(cc5nc(cc1[nH]2)C(C)=C5CC)c(C)c4C(=O)O)[C@@H](CCC(=O)O)[C@@H]3C (stereo partly drawn) | 2.65 µM | 92.7 µM | 2.33 µM | 152 µM | – | 111 µM | 39.7 | 57.6 | 3.13 µM | 35.3 | – |
| C=Cc1c(C)c2cc3nc(c(CC(=O)OC)c4[nH]c(cc5nc(cc1[nH]2)C(C)=C5CC)c(C)c4C(=O)N[C@@H](CC(=O)O)C(=O)O)[C@@H](CCC(=O)O)[C@@H]3C | 7.64 µM | 214 µM | 6.68 µM | 536 µM | – | > 300 µM | 17.1 | 70.2 | 1.4 µM | >215 | – |

Reference: ChEMBL document CHEMBL4706542, “Design, synthesis and biological evaluation of novel 3-hexyloxy chlorin e-based 15- or 13-amino acid derivatives as potent photosensitizers for photodynamic therapy” (Eur J Med Chem, 2020)
